This note sets out measurements from ChEMBL document CHEMBL4342414, “Activity of 2,6,9-trisubstituted purines as potent PDGFRα kinase inhibitors with antileukaemic activity” (Eur J Med Chem, 2019).

Calls of active or inactive are those of the source. No cut-off for these calls is given here.

A short description of data set [1]: Selectivity index, ratio of GI50 for human BJ cells to GI50 for FIP1L1-PDGFRA positive human EOL-1 cells after 72 hrs by resazurin dye-based fluorescence analysis. For orientation: Alamar Blue is a resazurin reagent that responds to reducing activity.
A short description of data set [2]: Cytotoxicity against human BJ cells assessed as growth inhibition after 72 hrs by resazurin dye-based fluorescence analysis. In kind it is cell-based.
For data set [3], the system named is K562. Put plainly: Cytotoxicity against human K562 cells assessed as growth inhibition after 72 hrs by resazurin dye-based fluorescence analysis. Format: functional. The settings on record: K562, 72 h.
Data set [4] concerns HCC827. Put plainly: Cytotoxicity against human HCC827 cells assessed as growth inhibition after 72 hrs by resazurin dye-based fluorescence analysis. Format: functional. The settings on record: HCC827, 72 h.
Data set [5] in a line: Cytotoxicity against human CEM cells assessed as growth inhibition after 72 hrs by resazurin dye-based fluorescence analysis. Format: cell-based. The settings on record: CEM (CCRF-CEM) cells.
Data set [6] deals with EOL1. Put plainly: Cytotoxicity against FIP1L1-PDGFRA positive human EOL-1 cells assessed as growth inhibition after 72 hrs by resazurin dye-based fluorescence analysis. In kind it is functional. The settings on record: EOL1, 72 h.
Data set [7] has as its target Platelet-derived growth factor receptor alpha (Homo sapiens, UniProt P16234, V561D). Put plainly: biochemical. Format: cell-based, Sf9.
Data set [8] relates to EOL1. As to the kind of experiment: Induction of apoptosis in human FIP1L1-PDGFRA positive EOL-1 cells assessed as increase in cell accumulation at subG1 phase at >=10 nM after 24 hrs by propidium iodide staining based flow cytometry relative to control. Format: functional. (In general: A flow cytometer gives signals particle by particle.)
Data set [9] relates to EOL1. As to the kind of experiment: Induction of cell cycle arrest at G1 phase in human FIP1L1-PDGFRA positive EOL-1 cells at 10 nM after 24 hrs by propidium iodide staining based flow cytometry. In kind it is functional.
A short description of data set [10]: Chemical stability of compound. Format: physicochemical.

Platelet-derived growth factor receptor alpha, sequence (P16234 24-1089 V561D limits assumed): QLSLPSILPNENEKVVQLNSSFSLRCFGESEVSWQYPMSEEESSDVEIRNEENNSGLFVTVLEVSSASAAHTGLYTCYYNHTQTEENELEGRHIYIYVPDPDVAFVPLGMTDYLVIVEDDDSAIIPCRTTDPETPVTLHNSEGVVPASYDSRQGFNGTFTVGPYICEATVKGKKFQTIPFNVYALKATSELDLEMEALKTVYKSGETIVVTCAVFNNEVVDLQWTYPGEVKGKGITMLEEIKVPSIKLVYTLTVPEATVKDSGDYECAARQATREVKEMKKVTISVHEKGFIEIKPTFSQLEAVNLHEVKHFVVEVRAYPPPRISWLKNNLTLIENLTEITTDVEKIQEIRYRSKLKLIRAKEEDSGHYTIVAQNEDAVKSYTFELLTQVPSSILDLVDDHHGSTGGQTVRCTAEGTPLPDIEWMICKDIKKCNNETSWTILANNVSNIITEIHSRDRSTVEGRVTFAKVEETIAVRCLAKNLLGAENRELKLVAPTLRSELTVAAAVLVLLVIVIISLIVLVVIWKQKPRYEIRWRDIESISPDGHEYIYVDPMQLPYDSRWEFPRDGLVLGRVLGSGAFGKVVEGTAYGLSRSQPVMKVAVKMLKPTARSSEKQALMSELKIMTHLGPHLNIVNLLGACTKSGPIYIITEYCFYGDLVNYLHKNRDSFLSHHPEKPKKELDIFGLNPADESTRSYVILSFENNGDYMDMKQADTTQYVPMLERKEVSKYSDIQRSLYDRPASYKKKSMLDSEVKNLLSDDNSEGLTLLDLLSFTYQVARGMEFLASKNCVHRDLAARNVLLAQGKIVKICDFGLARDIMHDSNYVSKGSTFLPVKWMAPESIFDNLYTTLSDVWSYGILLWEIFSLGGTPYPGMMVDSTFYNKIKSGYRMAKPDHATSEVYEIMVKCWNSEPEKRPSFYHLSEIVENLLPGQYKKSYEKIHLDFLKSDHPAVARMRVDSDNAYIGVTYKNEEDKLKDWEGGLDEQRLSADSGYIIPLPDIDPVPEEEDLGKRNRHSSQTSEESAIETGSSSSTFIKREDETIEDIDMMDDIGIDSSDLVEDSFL

As to `N[C@H]1CC[C@H](Nc2nc(Nc3ccccc3CN3CCOCC3)c3ncn(C4CCCC4)c3n2)CC1`, the RatioGI50 in data set [1] is given as 7. Also, the 50% growth inhibitory concentration (GI50) (commonly the concentration giving 50% growth inhibition) at 72 h in data set [2] is 30.4 µM; in data set [5], 18.1 µM. Besides, the GI50 worked out at 4.11 µM in [3], 22.2 µM in data set [4] and 4.52 µM in [6]. Besides, the IC50 (in general, the concentration needed to halve the response being measured) in data set [7] was greater than 20 µM.

With `N[C@H]1CC[C@H](Nc2nc(Nc3ccccc3CN3CCOCC3)c3ncn(CCCO)c3n2)CC1`, the RatioGI50 in data set [1] is given as greater than 4. Also, the concentration for 50% growth inhibition (GI50) at 72 h in [2] and in data set [5] was greater than 40 µM each time. In addition, the results for the GI50 in data set [3], in data set [4] and in data set [6] were greater than 40 µM, greater than 40 µM and 10.6 µM, respectively. Also, the concentration for half-maximal inhibition (IC50) in [7] was greater than 20 µM.

`Cc1ccc(NC(=O)c2ccc(CN3CCN(C)CC3)cc2)cc1Nc1nccc(-c2cccnc2)n1` [IMATINIB]: the RatioGI50 in data set [1] is recorded as greater than 80000. Also, the 50% growth inhibitory concentration (GI50) at 72 h in data set [2] is greater than 40 µM; in data set [5], 35.8 µM. Moreover, the figures for the GI50 in data set [3], in data set [4] and in data set [6] were 0.73 µM, greater than 40 µM and less than 0.0005 µM, respectively.

Regarding `N[C@H]1CC[C@H](Nc2nc(Nc3ccc(CN4CCOCC4)cc3)c3ncn(C4CCCC4)c3n2)CC1`, the result in data set [8] and in [9] was Active. Also, the GI50 at 72 h in data set [2] was 12.3 µM; in [5], 0.82 µM. Besides, the concentration for 50% growth inhibition (GI50) worked out at 1.12 µM in data set [3], 1.01 µM in [4] and 0.007 µM in [6].

On to `N[C@H]1CC[C@H](Nc2nc(Nc3ccc(-n4cnnc4)cc3)c3ncn(C4CCCC4)c3n2)CC1`, for which the concentration for 50% growth inhibition (GI50) at 72 h worked out at 12.8 µM in [2] and 0.671 µM in data set [5]. The figures for the GI50 in data set [3], in data set [4] and in data set [6] were 1.12 µM, 0.865 µM and 0.005 µM, respectively. The Stability result in data set [10] is on record as “Unstable”.

Turning to `N[C@H]1CC[C@H](Nc2nc(Nc3ccc(-n4cccn4)cc3)c3ncn(C4CCCC4)c3n2)CC1`, the 50% growth inhibitory concentration (GI50) at 72 h in data set [2] was 10.4 µM; in data set [5] it was 0.933 µM. In addition, the 50% growth inhibitory concentration (GI50) in data set [3] was found to be 0.982 µM; in data set [4] it was 0.847 µM; in data set [6] it was 0.008 µM. Also, in [10], the Stability result is “Unstable”.

As for `NCCCCNc1nc(Nc2ccccc2CN2CCOCC2)c2ncn(C3CCCC3)c2n1`, the RatioGI50 in data set [1] worked out at 6. The figures for the 50% growth inhibitory concentration (GI50) at 72 h in [2] and in [5] were 37.5 µM and 25.7 µM, respectively. In addition, the 50% growth inhibitory concentration (GI50) in data set [3] worked out at 12.2 µM; in data set [4], 26.3 µM; in data set [6], 6.41 µM. In addition, the IC50 in data set [7] is greater than 20 µM.

Take `N[C@H]1CC[C@H](Nc2nc(Nc3ccc(-c4ccoc4)nc3)c3ncn(C4CCCC4)c3n2)CC1`: the GI50 at 72 h in data set [2] came out at 13.1 µM; in data set [5], 0.619 µM. For the same molecule, the GI50 turned out to be 0.876 µM in data set [3], 0.632 µM in [4] and 0.017 µM in data set [6].

With `OCCCCNc1nc(Nc2ccc(N3CCN(Cc4ccccc4)CC3)cc2)c2ncn(CCCO)c2n1`, the GI50 at 72 h in [2] is greater than 40 µM; in data set [5], 27.9 µM. Besides, the figures for the GI50 in [3], in data set [4] and in data set [6] were 8.67 µM, 9.8 µM and 1.01 µM, respectively.

With `OCCCCNc1nc(Nc2ccc(CN3CCOCC3)cc2)c2ncn(C3CCC(O)C3)c2n1` (stereo unspecified), the figures for the 50% growth inhibitory concentration (GI50) at 72 h in [2] and in data set [5] were 26.1 µM and 6.43 µM, respectively. Besides, the GI50 in data set [3] was 3.78 µM; in data set [4] it was 3.26 µM; in [6], 0.162 µM.
